Test results as given in US10485815B2, “Substituted nucleosides, nucleotides and analogs thereof” (Alios BioPharma, Inc., priority 2012, dated 2019).

Key:
[1] = test system: RSV A2 (ATCC: VR-1540); assay: RSV RT-PCR based assay in HEp-2 cells; format: cell-based; conditions: human respiratory syncytial virus, 96 h; RT-PCR assay, HEp-2 cells, RSV A2 MOI 0.1, 4 days after infection; read-out: EC50
[2] = test system: Influenza strain A/WSN/33 (H1N1); assay: microbe, parasite or virus in culture; format: cell-based; conditions: A549, 20 h, read-out: % Inhibition
[3] = test system: human parainfluenza virus 3 (hPIV3, ATCC: VR-93); assay: Parainfluenza virus-3 (PIV-3) RT-PCR assay in A549 cells; format: cell-based; conditions: Human respirovirus 3, 168 h, hPIV3 MOI 0.1, 7 days after infection
[4] = test system: hPIV3-eGFP; assay: microbe, parasite or virus in culture; format: cell-based, human parainfluenza virus 3; conditions: Human respirovirus 3, A549, 72 h
[5] = test system: human PIV type 3; assay: Parainfluenza virus-3 (PIV-3) plaque assay in MA-104 cells; format: cell-based; conditions: MA104, 72 hours infection
Protocol: MA-104 cells were grown in 24-well plates to a confluency of 90% in the presence of minimal essential medium (MEM) supplemented with 10% fetal bovine serum and antibiotics (C-EMEM). The cells were then washed twice with non-complete minimal essential medium (NC-EMEM). Test articles were dissolved in DMSO to a stock concentration of 10 mM. An aliquot of 0.5 mL of the test article at various concentrations was then inoculated in triplicate wells and incubated for 60 minutes at 37° C. with 5% CO2 for the diffusion of test article into MA-104 cells. […] An aliquot of 0.1 mL was then inoculated into all the wells except for the negative and test article toxicity control wells. Upon infection, the plates were incubated for 72 hours at 37° C. at 5% CO2. After incubation, the plates were examined under microscopy to record cytotoxicity. The supernatants collected for viral quantification using a standard plaque assay using MA-104 cells as the indicator cells. To perform the plaques assay, MA-104 cells were grown to confluence in 24-well plates. The cells were washed with serum-free medium prior to inoculation of duplicate wells with serial 10-fold dilutions of supernatant sample. After 1 hour incubation at 37° C., the samples were aspirated and 1.0 mL of methyl cellulose overlay media was added to each well. […]

[6] = test system: human metapneumovirus; assay: Human metapneumovirus (hMPV) TCID50 assay in LLC-MK2 cells; format: cell-based; conditions: 168 h, 7 days infection
Protocol: LLC-MK2 cells were grown in 24-well plates to a confluency of 90% in the presence of minimal essential medium (MEM) supplemented with 10% fetal bovine serum and antibiotics (C-EMEM). The cells were then washed twice with non-complete minimal essential medium (NC-EMEM). Test articles were dissolved in DMSO to a stock concentration of 10 mM. An aliquot of 0.5 mL of the test article at various concentrations was then inoculated in triplicate wells and incubated for 60 minutes at 37° C. with 5% CO2 for the diffusion of test article into LLC-MK2 cells. […] An aliquot of 0.1 mL was then inoculated into all the wells except for the negative and test article toxicity control wells. Upon infection, the plates were incubated for 7 days at 37° C. at 5% CO2. After incubation, the plates were examined under microscopy to record cytotoxicity. The supernatants collected for viral quantification using a standard TCID50 assay using LLC-MK2 cells as the indicator cells. The data was analyzed with Prism software with EC50 defined as drug concentration that reduced the viral load 50% from the viral control (VC).

Row | Structure (SMILES) | EC50 [1] | EC50 [2] | EC50 [3] | EC50 [4] | EC50 [5] | EC50 [6]
1 | Nc1ccn([C@@H]2O[C@@](CO)(CCl)[C@@H](O)[C@H]2F)c(=O)n1 [Compound 7a] | < 1 µM | 100 to 250 µM | < 20 µM | < 20 µM | < 20 µM | < 20 µM
2 | CO[C@]1(CO)O[C@@H](n2ccc(N)nc2=O)[C@H](F)[C@@H]1O [Compound 22a] | 10 to 100 µM | 100 to 250 µM | > 100 µM | > 100 µM | – | –
3 | Nc1ccn([C@@H]2O[C@@](CO)(CF)[C@@H](O)[C@H]2F)c(=O)n1 [Compound 23a] | < 1 µM | 100 to 250 µM | > 100 µM | > 100 µM | – | –
4 | COC[C@]1(CO)O[C@@H](n2ccc(N)nc2=O)[C@H](F)[C@@H]1O [Compound 43a] | – | – | > 100 µM | > 100 µM | – | –
5 | C[C@]1(CO)O[C@@H](n2ccc(N)nc2=O)[C@H](F)[C@@H]1O [Compound 9a] | 10 to 100 µM | 100 to 250 µM | > 100 µM | > 100 µM | – | –
6 | Nc1ccn([C@@H]2O[C@@](CO)(CBr)[C@@H](O)[C@H]2F)c(=O)n1 [Compound 71a] | < 1 µM | – | > 100 µM | > 100 µM | – | –
7 | Nc1ccn([C@@H]2OC(CO)(CO)[C@@H](O)[C@H]2F)c(=O)n1 [Compound 6a] | – | 100 to 250 µM | > 100 µM | > 100 µM | – | –
8 | CSC[C@]1(CO)O[C@@H](n2ccc(N)nc2=O)[C@H](F)[C@@H]1O [Compound 69a] | < 1 µM | – | < 20 µM | 20 to 100 µM | – | –
9 | CC[C@]1(CO)O[C@@H](n2ccc(N)nc2=O)[C@H](F)[C@@H]1O [Compound 3a] | < 1 µM | 100 to 250 µM | < 20 µM | < 20 µM | < 20 µM | < 20 µM
